Experimental data as given in ChEMBL document CHEMBL3407472, “Multi-parameter optimization of aza-follow-ups to BI 207524, a thumb pocket 1 HCV NS5B polymerase inhibitor. Part 2: Impact of lipophilicity on promiscuity and in vivo toxicity” (Bioorg Med Chem Lett, 2015).
pEC50: −log10 of the molar value.

Legend:
Hepatitis C virus [1] = experiment: Antiviral activity against Hepatitis C virus genotype 1b infected in human Huh cells assessed as inhibition of viral replication by RT-PCR-based replicon assay; assay type: functional, cell-based, Hepacivirus hominis
[2] = Lipophilicity, log D of the compound at pH 7.4; assay type: physicochemical; details: buffer
Hepatitis C virus [3] = experiment: Antiviral activity against Hepatitis C virus genotype 1a infected in human Huh cells assessed as inhibition of viral replication by RT-PCR-based replicon assay; assay type: functional, cell-based, Hepacivirus hominis; details: subtype 1a

Row | Compound | pEC50 (Hepatitis C virus [1]) | logD [2] | pEC50 (Hepatitis C virus [3])
1 | COc1nc(NC(=O)C2(NC(=O)c3ccc4c(C5CCCC5)c(-c5ccc(F)cn5)n(C)c4c3)CCC2)cnc1/C=C/C(=O)O | 7.43 |  | 
2 | CCOc1nc(NC(=O)C2(NC(=O)c3ccc4c(C5CCCC5)c(-c5cncnc5)n(C)c4c3)CCCC2)cnc1/C=C/C(=O)O | 7.74 | 2.8 | 
3 | COc1nc(NC(=O)C(C)(C)NC(=O)c2ccc3c(C4CCCC4)c(-c4ncc(Br)cn4)n(C)c3c2)cnc1/C=C/C(=O)O | 7.64 | 2.6 | 
4 | CCOc1nc(NC(=O)C(C)(C)NC(=O)c2ccc3c(C4CCCC4)c(-c4cnccn4)n(C)c3c2)cnc1/C=C/C(=O)O | 7.44 | 2.4 | 
5 | CCOc1nc(NC(=O)C(C)(C)NC(=O)c2ccc3c(C4CCCC4)c(-c4cnccn4)n(C)c3c2)ccc1/C=C/C(=O)O | 8.15 | 2.9 | 
6 | CCOc1nc(NC(=O)C(C)(C)NC(=O)c2ccc3c(C4CCCC4)c(-c4ccccn4)n(C)c3c2)ccc1/C=C/C(=O)O | 8.70 | 3.5 | 
7 | COc1nc(NC(=O)C2(NC(=O)c3ccc4c(C5CCCC5)c(-c5ccc(Cl)cn5)n(C)c4c3)CCCC2)cnc1/C=C/C(=O)O | 7.40 |  | 
8 | COc1nc(NC(=O)C2(NC(=O)c3ccc4c(C5CCCC5)c(-c5ncc(Br)cn5)n(C)c4c3)CCC2)cnc1/C=C/C(=O)O | 6.94 |  | 
9 | COc1nc(NC(=O)C2(NC(=O)c3ccc4c(C5CCCC5)c(-c5ccccn5)n(C)c4c3)CCCC2)cnc1/C=C/C(=O)O | 7.51 |  | 
10 | CCOc1nc(NC(=O)C2(NC(=O)c3ccc4c(C5CCCC5)c(-c5ccccn5)n(C)c4c3)CCCC2)ccc1/C=C/C(=O)O | 8.40 |  | 
11 | COc1nc(NC(=O)C(C)(C)NC(=O)c2ccc3c(C4CCCC4)c(-c4ccccn4)n(C)c3c2)cnc1/C=C/C(=O)O | 7.30 |  | 
12 | COc1nc(NC(=O)C(C)(C)NC(=O)c2ccc3c(C4CCCC4)c(-c4ncc(Br)cn4)n(C)c3c2)ccc1/C=C/C(=O)O | 8.15 | 3.2 | 
13 | COc1nc(NC(=O)C(C)(C)NC(=O)c2ccc3c(C4CCCC4)c(-c4ncc(Cl)cn4)n(C)c3c2)ccc1/C=C/C(=O)O | 7.33 | 3.3 | 
14 | CCOc1nc(NC(=O)C2(NC(=O)c3ccc4c(c3)c(C)c(-c3ccc(F)cn3)n4C3CCCCC3)CCCC2)ccc1/C=C/C(=O)O | 8.30 | > 6.2 | 
15 | CCOc1nc(NC(=O)C(C)(C)NC(=O)c2ccc3c(C4CCCC4)c(-c4ccccn4)n(C)c3c2)cnc1/C=C/C(=O)O | 7.36 | 2.2 | 
16 | CCOc1nc(NC(=O)C2(NC(=O)c3ccc4c(C5CCCC5)c(-c5ncc(Br)cn5)n(C)c4c3)CCCC2)ccc1/C=C/C(=O)O | 8.30 | > 6.6 | 
17 | COc1nc(NC(=O)C(C)(C)NC(=O)c2ccc3c(C4CCCC4)c(-c4ccc(F)cn4)n(C)c3c2)cnc1/C=C/C(=O)O | 7.59 |  | 
18 | COc1nc(NC(=O)C(C)(C)NC(=O)c2ccc3c(C4CCCC4)c(-c4cnccn4)n(C)c3c2)cnc1/C=C/C(=O)O | 7.26 |  | 
19 | CCOc1nc(NC(=O)C2(NC(=O)c3ccc4c(C5CCCC5)c(-c5ncc(Br)cn5)n(C)c4c3)CCC2)cnc1/C=C/C(=O)O | 7.52 | 4.2 | 

Row | Compound | pEC50 (Hepatitis C virus [1]) | logD [2] | pEC50 (Hepatitis C virus [3])
20 | COc1nc(NC(=O)C(C)(C)NC(=O)c2ccc3c(C4CCCC4)c(-c4cnccn4)n(C)c3c2)ccc1/C=C/C(=O)O | 7.80 | 2.4 | 
21 | CCOc1nc(NC(=O)C2(NC(=O)c3ccc4c(C5CCCC5)c(-c5ccc(Cl)cn5)n(C)c4c3)CCCC2)ccc1/C=C/C(=O)O | 8.40 | > 5.5 | 
22 | COc1nc(NC(=O)C2(NC(=O)c3ccc4c(C5CCCC5)c(-c5ccc(Cl)cn5)n(C)c4c3)CCC2)ccc1/C=C/C(=O)O | 7.89 | 4.6 | 
23 | CCOc1nc(NC(=O)C2(NC(=O)c3ccc4c(C5CCCC5)c(-c5ncc(Br)cn5)n(C)c4c3)CCCC2)cnc1/C=C/C(=O)O | 8.05 | > 4.2 | 
24 | COc1nc(NC(=O)C(C)(C)NC(=O)c2ccc3c(C4CCCC4)c(-c4cncnc4)n(C)c3c2)cnc1/C=C/C(=O)O | 6.48 |  | 
25 | CCOc1nc(NC(=O)C2(NC(=O)c3ccc4c(C5CCCC5)c(-c5ccc(Cl)cn5)n(C)c4c3)CCC2)cnc1/C=C/C(=O)O | 7.28 |  | 
26 | COc1nc(NC(=O)C2(NC(=O)c3ccc4c(C5CCCC5)c(-c5ncc(Br)cn5)n(C)c4c3)CCC2)ccc1/C=C/C(=O)O | 8.05 | 3.9 | 
27 | COc1nc(NC(=O)C2(NC(=O)c3ccc4c(C5CCCC5)c(-c5ncc(Cl)cn5)n(C)c4c3)CCC2)cnc1/C=C/C(=O)O | 7.49 |  | 
28 | CCOc1nc(NC(=O)C2(NC(=O)c3ccc4c(C5CCCC5)c(-c5cncnc5)n(C)c4c3)CCCC2)ccc1/C=C/C(=O)O | 8.30 | 3.6 | 
29 | COc1nc(NC(=O)C(C)(C)NC(=O)c2ccc3c(C4CCCC4)c(-c4ccc(Cl)cn4)n(C)c3c2)cnc1/C=C/C(=O)O | 7.36 |  | 
30 | COc1nc(NC(=O)C2(NC(=O)c3ccc4c(C5CCCC5)c(-c5cncnc5)n(C)c4c3)CCC2)cnc1/C=C/C(=O)O | 6.73 |  | 
31 | CCOc1nc(NC(=O)C2(NC(=O)c3ccc4c(C5CCCC5)c(-c5ccc(F)cn5)n(C)c4c3)CCC2)cnc1/C=C/C(=O)O | 7.70 |  | 7.05
32 | COc1nc(NC(=O)C2(NC(=O)c3ccc4c(C5CCCC5)c(-c5ncc(Cl)cn5)n(C)c4c3)CCCC2)cnc1/C=C/C(=O)O | 7.54 |  | 
33 | CCOc1nc(NC(=O)C2(NC(=O)c3ccc4c(C5CCCC5)c(-c5ccc(F)cn5)n(C)c4c3)CCCC2)ccc1/C=C/C(=O)O | 8.40 | > 5.3 | 
34 | COc1nc(NC(=O)C2(NC(=O)c3ccc4c(C5CCCC5)c(-c5cnccn5)n(C)c4c3)CCC2)cnc1/C=C/C(=O)O | 7.31 |  | 
35 | COc1nc(NC(=O)C(C)(C)NC(=O)c2ccc3c(C4CCCC4)c(-c4ccccn4)n(C)c3c2)ccc1/C=C/C(=O)O | 7.68 |  | 
36 | COc1nc(NC(=O)C2(NC(=O)c3ccc4c(C5CCCC5)c(-c5ccc(F)cn5)n(C)c4c3)CCCC2)cnc1/C=C/C(=O)O | 7.52 |  | 
37 | COc1nc(NC(=O)C(C)(C)NC(=O)c2ccc3c(c2)c(C)c(-c2ccc(F)cn2)n3C2CCCCC2)ccc1/C=C/C(=O)O | 8.52 |  | 
38 | CCOc1nc(NC(=O)C2(NC(=O)c3ccc4c(C5CCCC5)c(-c5ccccn5)n(C)c4c3)CCCC2)cnc1/C=C/C(=O)O | 7.80 | 2.6 | 

Row | Compound | pEC50 (Hepatitis C virus [1]) | logD [2] | pEC50 (Hepatitis C virus [3])
39 | CCOc1nc(NC(=O)C(C)(C)NC(=O)c2ccc3c(C4CCCC4)c(-c4cncnc4)n(C)c3c2)cnc1/C=C/C(=O)O | 7.09 | 2.2 | 
40 | CCOc1nc(NC(=O)C2(NC(=O)c3ccc4c(C5CCCC5)c(-c5ccc(F)cn5)n(C)c4c3)CCCC2)cnc1/C=C/C(=O)O | 7.96 | 3.9 | 
41 | COc1nc(NC(=O)C2(NC(=O)c3ccc4c(C5CCCC5)c(-c5ncc(Br)cn5)n(C)c4c3)CCCC2)cnc1/C=C/C(=O)O | 7.42 |  | 
42 | CCOc1nc(NC(=O)C2(NC(=O)c3ccc4c(C5CCCC5)c(-c5cncnc5)n(C)c4c3)CCC2)cnc1/C=C/C(=O)O | 7.05 |  | 
43 | COc1nc(NC(=O)C(C)(C)NC(=O)c2ccc3c(c2)c(C)c(-c2ccc(F)cn2)n3C2CCCCC2)cnc1/C=C/C(=O)O | 7.57 |  | 
44 | CCOc1nc(NC(=O)C2(NC(=O)c3ccc4c(C5CCCC5)c(-c5cnccn5)n(C)c4c3)CCC2)cnc1/C=C/C(=O)O | 7.66 | 2.9 | 
45 | CCOc1nc(NC(=O)C(C)(C)NC(=O)c2ccc3c(C4CCCC4)c(-c4ccc(F)cn4)n(C)c3c2)cnc1/C=C/C(=O)O | 7.74 |  | 
46 | CCOc1nc(NC(=O)C2(NC(=O)c3ccc4c(C5CCCC5)c(-c5ncc(Cl)cn5)n(C)c4c3)CCC2)cnc1/C=C/C(=O)O |  | 3.5 | 
47 | COc1nc(NC(=O)C2(NC(=O)c3ccc4c(C5CCCC5)c(-c5ccc(Cl)cn5)n(C)c4c3)CCC2)cnc1/C=C/C(=O)O | 7.25 |  | 
48 | CCOc1nc(NC(=O)C2(NC(=O)c3ccc4c(C5CCCC5)c(-c5cnccn5)n(C)c4c3)CCCC2)ccc1/C=C/C(=O)O | 8.30 | 4.1 | 
49 | CCOc1nc(NC(=O)C2(NC(=O)c3ccc4c(C5CCCC5)c(-c5ncc(Br)cn5)n(C)c4c3)CCC2)ccc1/C=C/C(=O)O | 7.92 |  | 7.62
50 | CCOc1nc(NC(=O)C2(NC(=O)c3ccc4c(C5CCCC5)c(-c5ccc(Cl)cn5)n(C)c4c3)CCCC2)cnc1/C=C/C(=O)O | 7.89 | > 4.4 | 
51 | CCOc1nc(NC(=O)C2(NC(=O)c3ccc4c(c3)c(C)c(-c3ccc(F)cn3)n4C3CCCCC3)CCCC2)cnc1/C=C/C(=O)O | 8.22 | 4.2 | 
52 | COc1nc(NC(=O)C2(NC(=O)c3ccc4c(C5CCCC5)c(-c5ccccn5)n(C)c4c3)CCC2)cnc1/C=C/C(=O)O | 7.37 |  | 
53 | COc1nc(NC(=O)C2(NC(=O)c3ccc4c(C5CCCC5)c(-c5cncnc5)n(C)c4c3)CCCC2)cnc1/C=C/C(=O)O | 6.24 |  | 
54 | COc1nc(NC(=O)C2(NC(=O)c3ccc4c(C5CCCC5)c(-c5cnccn5)n(C)c4c3)CCCC2)cnc1/C=C/C(=O)O | 6.41 |  | 
55 | COc1nc(NC(=O)C2(NC(=O)c3ccc4c(C5CCCC5)c(-c5cncnc5)n(C)c4c3)CCC2)ccc1/C=C/C(=O)O | 7.30 |  | 
56 | COc1nc(NC(=O)C(C)(C)NC(=O)c2ccc3c(C4CCCC4)c(-c4ccc(Cl)cn4)n(C)c3c2)ccc1/C=C/C(=O)O | 7.92 | 3.9 | 
